In patent US10235756B2, “Vascular analysis methods and apparatus” (Bio-Tree Systems, Inc., priority 2009, dated 2019):

Assays:
glioblastoma = experiment: Vascular biomarker analysis of control and Avastin-treated glioblastoma (3D tumor vasculature, tumor wrap); type: in vivo
Text: X-ray images of a control tumor and an Avastin-treated tumor are shown side by side in FIG. 43. […] FIGS. 46 and 47 show exemplary tumor wraps of the same control and Avastin-treated tumors. FIGS. 48-52 exemplify visualization of the distribution of microvascular density within two exemplary tumors.
In some embodiments, the assessment of vascular hot spots and/or necrotic regions within a diseased tissue, for example a malignant tumor, may be used in the evaluation of a treatment targeting said diseased tissue, for example the administration of a chemotherapeutic agent. FIG. 54 exemplify a comparison of vascular hot spots and necrotic regions in glioblastoma treated with Avastin to vascular hot spots and necrotic regions in non-treated control glioblastoma. […] Assessment of an exemplary vascular density related biomarker, total vessel density (number of vessels per given volume), in Avastin-treated glioblastoma and untreated controls is depicted in FIG. 56. Assessment of another exemplary vascular density related biomarker, mean vessel density (average number of vessels over a number of volume units, for example defined by the boundary of a tumor), in Avastin-treated glioblastoma and untreated controls as depicted in FIG. 57. Assessment of an exemplary vascular density related biomarker, total vessel volume density (number of voxels belonging to a vessel within a given volume), in Avastin-treated glioblastoma and untreated controls is depicted in FIG. 58. Assessment of another exemplary vascular density related biomarker, mean vessel volume density (average number of voxels belonging to a vessel within a number of volume units, for example defined by the boundary of a tumor), in Avastin-treated glioblastoma and untreated controls as depicted in FIG. 59. In some embodiments, a boundary of a tissue, for example a tumor, are determined based on vascular imaging and modeling data, and a subsequent assessment qualifying a voxel within those boundaries is carried out. In some embodiments, a biomarker is […] in a plurality of such qualified voxels. For example, the boundary of a solid tumor may be determined based on the abnormal vasculature associated with malignant tissue, for example by “tumor-wrap”, and vascular density related biomarkers may be assessed for tissue within that boundary.
It should be appreciated, that the biomarkers related to by some aspects of this invention may be useful in a wide variety of diagnostic and therapeutic modalities and applications, some non-limiting examples of which are described herein.

[1] = tested on: human non-small cell lung tumor cell line (A549) subcutaneous tumors; experiment: Xenotopic tumor model, response to antiangiogenic therapy (vascular casts, micro CT); type: in vivo, mouse
Protocol: A tumor model can be generated by inoculating human non-small cell lung tumor cell line (A549 from ATCC, Inc.) subcutaneously in immunodeficient mice (SCID). SCID male mice (6-8 weeks old from Charles River Inc.) are inoculated subcutaneously in the lower back with a suspension of 1×10^6 human lung tumor cells (A549) in 0.2 ml of PBS. All mice are fed normal chow diet throughout the duration of the experiment. All mice weights are measured throughout the experiment. Tumor size is measured with calipers twice-a-week and tumor volume is calculated using the formula Length^2×Width×0.52. All mice are randomized into two treatment groups (approximately 10 mice per group) when the median tumor volume reaches approximately 500 mm^3. The treatment groups can be treated according to the following schedule using intraperitoneal (i.p.) administration of either a control composition or an anti-angiogenic compound. For example, different levels of an anti-angiogenic compound can be used and the results compared to a control group that is not treated with an anti-angiogenic compound (e.g., Avastin® available from Genentech, South San Francisco, Calif.). For example:
Group 1: Control group—treated with saline/PBS twice a week.
Group 2: High Avastin®—treated with Avastin® at 5 mg/kg/i.p. twice a week.
Group 3: Low Avastin®—treated with Avastin® at 0.5 mg/kg/i.p. twice a week.
Experiments are terminated 1.5 weeks after initial treatment.
At the end-point, all mice are anesthetized and systemically perfused with a casting agent.
In some embodiments, a tissue, for example, a tumor tissue, is perfused with a contrast and/or a casting agent prior to image acquisition. Methods of tissue perfusion are well known to those of skill in the art. In some embodiments, a tissue is perfused with Mercox, a casting agent available, for example, from Ladd Research, Williston, Vt. Mercox perfusion can be performed, as follows. An initial anticoagulation step for each animal is performed using an i.v. injection of heparin (10,000 U/ml, 0.3 cc/mouse). After 30 minutes, the animals are anesthetized. Each animal's heart is cannulated and the animal perfused with warm physiological saline at physiological pressure (with an open vein draining the organ or with an open vena cava). Perfusion is continued until the organ or animal is clear of blood. Mercox monomer is filtered through a 0.5 μm filter and a casting resin is prepared by mixing 8 ml Mercox, 2 ml methylmethacrylate, and 0.3 ml catalyst. The resin is infused through the same cannula until the onset of polymerization (the resin changes color to brown and emits heat, ˜10 min). The organ or animal is carefully immersed in a 60° C. water bath for 2 hours (or overnight in a sealed container). The tissue is removed by incubating in alternating rinses of 5% KOH and distilled water (for example in a 60° C. water bath sealed) followed by thorough rinsing in distilled water. The cast is cleaned in 5% formic acid for 15 minutes and rinsed thoroughly in distilled water and frozen in distilled water. The resulting block of ice is lyophilized (care should be taken not to melt the ice, the ice should […] as it lyophilizes). The resulting cast can be analyzed to identify one or more structural characteristics of interest.
Xenotopic mouse models obtained as described in Example 7 can be treated with either a control solution of saline/PBS or an anti-angiogenic preparation of Avastin® at 0.5 mg/kg/i.p. as described above. At the end-point, vascular casts can be prepared as described in Example 8 above and may be analyzed for two treated mice (both treated with Avastin® at 0.5 mg/kg/i.p.) and one control mouse. However, other experimental configurations may be used. The resulting vascular casts can be scanned using a micro CT-scanner and exemplary results of the structural analysis are shown in FIGS. 44-47. […] The blood vessel population distributions were consistent for both treated animals. […]

[2] = tested on: mouse tumor model generated using H1975 cells; experiment: Hot spot analysis in mouse tumor model; type: in vivo
Text: Applicant has appreciated that vascular information (e.g., based on vascular geometry) within a region (e.g., a wrapped 3D region) may be analyzed to identify one or more hot spots. For example, a threshold number of poker chips may be identified as a threshold for a hot spot within a unit volume of a tumor. The relative amount (e.g., percentage) of tumor vasculature that is represented by a hot spot then may be determined. This value may be used to evaluate the tumor (e.g., for diagnostic or prognostic purposes) or to evaluate a tumor response to therapy. In a non-limiting example, a hot spot may be defined as a cubic millimeter that contains more than 10,000 poker chips. FIGS. 73 and 74 illustrate experiments where the percentage represented by the hot spot regions (e.g., as a percentage of unit volumes within a tumor volume that are above the threshold for defining a hotspot) are evaluated in a mouse tumor model in response to Avastin treatment. The mouse tumor model was generated using H1975 cells. Mice were compared with and without Avastin treatment (Avastin provided for 10 days as described herein). The tumors analyzed were approximately 100 cubic mm in size. […]

vasculature = experiment: Morphological features as a function of vessel diameter, control vs treated vasculature; type: in vivo; details: control vasculature vs vasculature treated with Avastin, FIGS. 30-32
Text: As discussed above, computed morphological features may be used to compare the same features obtained from healthy tissue, or to compare the same features extracted from a bounded vasculature at different points in time to, for example, assess the effectiveness of treatment. FIGS. 30-33 illustrate examples of using various morphological properties described herein to, for example, quantify diseased vasculature and/or assess the effectiveness of a particular treatment. FIGS. 30-32 illustrate plots of a respective morphological feature as a function of vessel diameter for a control vasculature and for a vasculature treated with Avastin. […] Moreover, the impact may differ depending on the vessel size. That is, differences between the control and treated plots may be larger or smaller depending on the diameter of the vessel. Applicant has appreciated that the differences may be quantified to define a range wherein differences are different enough to help determine which vessel diameters are being targeted and impacted by the treatment.

[3] = Avastin-treated vs non-treated control glioblastoma, FIG. 55
[4] = 0.5 mg/kg/i.p., treated vs untreated tumors

bevacizumab [Avastin]
hot spot density (glioblastoma; [3]): significant decrease | necrotic region volume (glioblastoma; [3]): significant increase | vessel volume density (glioblastoma; [3]): significant decrease | frequency of microvascular density bins (glioblastoma; control vs treated tumor, FIG. 53): different microvascular density bin distribution | mean tumor volumes ([1]; 0.5 mg/kg/i.p., treated vs control group at the end of the experiment): did not differ significantly | blood vessel density ([1]; 0.5 mg/kg/i.p., treated vs control, FIGS. 54-67): differences in blood vessel density were detected | percentage of middle diameter sized vessels [1, 4]: higher percentage | small diameter sized vessels, less than untreated tumors [1, 4]: 20% | vessel population ratio between large and middle size vessels ([1]; large approximately 147-161 μm, middle approximately 33-77 μm, after treatment): decreased | vessel population ratio between small and middle size vessels ([1]; small approximately 21-35 μm, middle approximately 35-49 μm, after inhibitor treatment): decreased | mean percentage of hot spot regions ([2]; Avastin provided for 10 days, over the time of the experiment, FIG. 73): decrease | percentage of hot spot regions after treatment ([2]; change of about 40% to about 10%, Avastin for 10 days, hot spot = cubic millimeter with more than 10,000 poker chips): about 10% | morphological features as a function of vessel diameter (vasculature): there are differences
